Calls of active or inactive are those of the source. How the calls were made is not given here.
Test system: rodent carcinogenicity bioassays, tumor incidence
Experiment: CCRIS carcinogenicity studies
From the text: The CCRIS database contains chemical records with carcinogenicity, mutagenicity, tumor promotion, and tumor inhibition test results. It was developed by the National Cancer Institute (NCI). Data are derived from studies cited in primary journals, current awareness tools, NCI reports, and other sources. Test results have been reviewed by experts in carcinogenesis and mutagenesis.
CCRIS provides historical information from the years 1985 - 2011. It is no longer updated.
This is an archive assay for CCRIS carcinogenicity studies.

With `COC(=O)c1ccc(C(=O)OC)cc1` the carcinogen call (Species: MOUSE, Strain/Sex: B6C3F1/FEMALE, Route: ORAL, Dose: 0, 2500, 5000 PPM IN DIET FOR 103 WK (STUDY DURATION: 104-105 WK), Dose: 0, 2500, 5000 PPM IN DIET FOR 103 WK (STUDY DURATION: 104-105 WK)) was “inactive; negative”, the carcinogen call (Species: MOUSE, Strain/Sex: B6C3F1/MALE, Route: ORAL, Dose: 0, 2500, 5000 PPM IN DIET FOR 103 WK (STUDY DURATION: 104-105 WK), Dose: 0, 2500, 5000 PPM IN DIET FOR 103 WK (STUDY DURATION: 104-105 WK), Tumor Site: Type of Lesion: LUNG: ALVEOLAR/BRONCHIOLAR ADENOMA OR CARCINOMA) was “equivocal” and the carcinogen call (Species: RAT, Strain/Sex: F344/FEMALE, Route: ORAL, Dose: 0, 2500, 5000 PPM IN DIET FOR 103 WK (STUDY DURATION: 105-106 WK), Dose: 0, 2500, 5000 PPM IN DIET FOR 103 WK (STUDY DURATION: 105-106 WK)) was “inactive; negative”. The carcinogen call (Species: RAT, Strain/Sex: F344/MALE, Route: ORAL, Dose: 0, 2500, 5000 PPM IN DIET FOR 103 WK (STUDY DURATION: 105-106 WK), Dose: 0, 2500, 5000 PPM IN DIET FOR 103 WK (STUDY DURATION: 105-106 WK)) was “inactive; negative”.

With `OC1C=Cc2c(cc3ccc4cccc5c6ccccc6c2c3c45)C1O` (stereo not drawn) the carcinogen call (Species: MOUSE, Strain/Sex: SWISS/FEMALE, Route: DERMAL, Dose: 0, 1, 4 NMOL IN 100 µL ACETONE 2/WK FOR 40 WK (STUDY DURATION: 48 WK), Dose: 0, 1, 4 NMOL IN 100 µL ACETONE 2/WK FOR 40 WK (STUDY DURATION: 48 WK), Tumor Site: Type of Lesion: SKIN: TUMORS) was “active; positive”.

With `CN(Cc1ccccc1)N=O` the carcinogen call (Species: MOUSE, Strain/Sex: CD-1/MALE, FEMALE, Route: INTRAPERITONEAL, Dose: 0, 4 MG/KG 2/WK FOR 12 WK, 8 MG/KG 2/WK FOR 6 WK, 16 MG/KG 2/WK FOR 3 WK FOR TOTAL DOSES OF 96 MG/KG (STUDY DURATION: 40, Dose: 0, 4 MG/KG 2/WK FOR 12 WK, 8 MG/KG 2/WK FOR 6 WK, 16 MG/KG 2/WK FOR 3 WK FOR TOTAL DOSES OF 96 MG/KG (STUDY DURATION: 40, Tumor Site: Type of Lesion: FORESTOMACH: PAPILLOMA, CARCINOMA) was “active; positive” and the carcinogen call (Species: RAT, Strain/Sex: SPRAGUE-DAWLEY/MALE, Route: GAVAGE, Dose: 0, 0.5, 2 MG/KG IN SALINE ONCE ADMINISTERED TO RATS MAINTAINED ON ZINC-DEFICIENT DIET (STUDY DURATION: 14 WK), Dose: 0, 0.5, 2 MG/KG IN SALINE ONCE ADMINISTERED TO RATS MAINTAINED ON ZINC-DEFICIENT DIET (STUDY DURATION: 14 WK), Tumor Site: Type of Lesion: ESOPHAGUS: TUMOR) was “active; positive”.

For `CC(C)CN(N=O)C(N)=O`, the carcinogen call (Species: RAT, Strain/Sex: DONRYU/FEMALE, Route: ORAL, Dose: 100, 200, 400 PPM IN DRINKING WATER, Dose: 100, 200, 400 PPM IN DRINKING WATER, Tumor Site: Type of Lesion: DUODENUM: BENIGN HEMANGIOENDOTHELIOMA, MALIGNANT HEMANGIOENDOTHELIOMA) was “active; positive”.

With `O=C(OC[C@@H]1O[C@H](OC(=O)c2cc(O)c(O)c(OC(=O)c3cc(O)c(O)c(O)c3)c2)[C@@H](OC(=O)c2cc(O)c(O)c(OC(=O)c3cc(O)c(O)c(O)c3)c2)[C@H](OC(=O)c2cc(O)c(O)c(OC(=O)c3cc(O)c(O)c(O)c3)c2)[C@H]1OC(=O)c1cc(O)c(O)c(OC(=O)c2cc(O)c(O)c(O)c2)c1)c1cc(O)c(O)c(OC(=O)c2cc(O)c(O)c(O)c2)c1` the carcinogen call (Species: MOUSE, Route: SUBCUTANEOUS, Tumor Site: Type of Lesion: LIVER, INJECTION SITE) was “active; positive”, the carcinogen call (Species: RAT, Route: SUBCUTANEOUS, Tumor Site: Type of Lesion: LIVER) was “active; positive” and the carcinogen call (Species: RAT, Strain/Sex: F344/FEMALE, Route: ORAL, Dose: 0, 0.25, 0.5% IN DISTILLED WATER AS DRINKING WATER FOR 2 YR (STUDY DURATION: 114 WK), Dose: 0, 0.25, 0.5% IN DISTILLED WATER AS DRINKING WATER FOR 2 YR (STUDY DURATION: 114 WK)) was “inactive; negative”. The carcinogen call (Species: RAT, Strain/Sex: F344/MALE, Route: ORAL, Dose: 0, 0.25, 0.5% IN DISTILLED WATER AS DRINKING WATER FOR 2 YR (STUDY DURATION: 114 WK), Dose: 0, 0.25, 0.5% IN DISTILLED WATER AS DRINKING WATER FOR 2 YR (STUDY DURATION: 114 WK)) was “inactive; negative”.

For `OC(c1ccc(Cl)cc1)(c1ccc(Cl)cc1)C(Cl)(Cl)Cl`, the carcinogen call (Species: MOUSE, Strain/Sex: B6C3F1/FEMALE, Route: ORAL, Dose: 0, 122, 243 PPM IN DIET, Dose: 0, 122, 243 PPM IN DIET) was “inactive; negative”, the carcinogen call (Species: MOUSE, Strain/Sex: B6C3F1/MALE, Route: ORAL, Dose: 0, 264, 528 PPM IN DIET, Dose: 0, 264, 528 PPM IN DIET, Tumor Site: Type of Lesion: LIVER: HEPATOCELLULAR CARCINOMA OR HEPATOCELLULAR ADENOMA) was “active; positive” and the carcinogen call (Species: RAT, Strain/Sex: OSBORNE-MENDEL/FEMALE, Route: ORAL, Dose: 0, 380, 760 PPM IN DIET, Dose: 0, 380, 760 PPM IN DIET) was “inactive; negative”. For the same compound, the carcinogen call (Species: RAT, Strain/Sex: OSBORNE-MENDEL/MALE, Route: ORAL, Dose: 0, 471, 942 PPM IN DIET, Dose: 0, 471, 942 PPM IN DIET) was “inactive; negative”.

`COc1ccc(OC)c(N=Nc2c(O)ccc3ccccc23)c1` was tested, and the carcinogen call (Species: MOUSE, Strain/Sex: C57 X 1F F1, Route: BLADDER IMPLANT, Dose: 0, 12.5% SUSPENSION IN PARAFFIN WAX (STUDY DURATION: 40 WK), Tumor Site: Type of Lesion: BLADDER: CARCINOMA) was “active; positive”.

With `C/C=C/Cl` the carcinogen call (Species: MOUSE, Strain/Sex: ICR/FEMALE, Route: GAVAGE, Dose: 1.0 MG IN 0.1 ML TRIOCTANOIN 1/WK, Tumor Site: Type of Lesion: FORESTOMACH: SQUAMOUS CELL CARCINOMA) was “active; positive”.

For `Oc1cccc2cccnc12`, the carcinogen call (Species: MOUSE, Strain/Sex: B6C3F1/FEMALE, Route: ORAL, Dose: 0, 1500, 3000 PPM IN DIET FOR 103 WK, Dose: 0, 1500, 3000 PPM IN DIET FOR 103 WK) was “inactive; negative”, the carcinogen call (Species: MOUSE, Strain/Sex: B6C3F1/MALE, Route: ORAL, Dose: 0, 1500, 3000 PPM IN DIET FOR 103 WK, Dose: 0, 1500, 3000 PPM IN DIET FOR 103 WK) was “inactive; negative” and the carcinogen call (Species: RAT, Strain/Sex: F344/FEMALE, Route: ORAL, Dose: 0, 1500, 3000 PPM IN DIET FOR 103 WK, Dose: 0, 1500, 3000 PPM IN DIET FOR 103 WK) was “inactive; negative”. For the same compound, the carcinogen call (Species: RAT, Strain/Sex: F344/MALE,FEMALE, Route: ORAL, Dose: 0.1% IN DIET FOR 2 YR) was “inactive; negative” and the carcinogen call (Species: RAT, Strain/Sex: F344/MALE, Route: ORAL, Dose: 0, 1500, 3000 PPM IN DIET FOR 103 WK, Dose: 0, 1500, 3000 PPM IN DIET FOR 103 WK) was “inactive; negative”.
